ChEMBL document CHEMBL1140899, “Computational studies of epidermal growth factor receptor: docking reliability, three-dimensional quantitative structure-activity relationship analysis, and virtual screening studies” (J Med Chem, 2009)

Target: T1, Epidermal growth factor receptor (Homo sapiens, UniProt P00533)
Settings: at 100 µM
Description: Inhibition of human recombinant EGFR at 100 uM

T1 sequence (P00533 whole entry): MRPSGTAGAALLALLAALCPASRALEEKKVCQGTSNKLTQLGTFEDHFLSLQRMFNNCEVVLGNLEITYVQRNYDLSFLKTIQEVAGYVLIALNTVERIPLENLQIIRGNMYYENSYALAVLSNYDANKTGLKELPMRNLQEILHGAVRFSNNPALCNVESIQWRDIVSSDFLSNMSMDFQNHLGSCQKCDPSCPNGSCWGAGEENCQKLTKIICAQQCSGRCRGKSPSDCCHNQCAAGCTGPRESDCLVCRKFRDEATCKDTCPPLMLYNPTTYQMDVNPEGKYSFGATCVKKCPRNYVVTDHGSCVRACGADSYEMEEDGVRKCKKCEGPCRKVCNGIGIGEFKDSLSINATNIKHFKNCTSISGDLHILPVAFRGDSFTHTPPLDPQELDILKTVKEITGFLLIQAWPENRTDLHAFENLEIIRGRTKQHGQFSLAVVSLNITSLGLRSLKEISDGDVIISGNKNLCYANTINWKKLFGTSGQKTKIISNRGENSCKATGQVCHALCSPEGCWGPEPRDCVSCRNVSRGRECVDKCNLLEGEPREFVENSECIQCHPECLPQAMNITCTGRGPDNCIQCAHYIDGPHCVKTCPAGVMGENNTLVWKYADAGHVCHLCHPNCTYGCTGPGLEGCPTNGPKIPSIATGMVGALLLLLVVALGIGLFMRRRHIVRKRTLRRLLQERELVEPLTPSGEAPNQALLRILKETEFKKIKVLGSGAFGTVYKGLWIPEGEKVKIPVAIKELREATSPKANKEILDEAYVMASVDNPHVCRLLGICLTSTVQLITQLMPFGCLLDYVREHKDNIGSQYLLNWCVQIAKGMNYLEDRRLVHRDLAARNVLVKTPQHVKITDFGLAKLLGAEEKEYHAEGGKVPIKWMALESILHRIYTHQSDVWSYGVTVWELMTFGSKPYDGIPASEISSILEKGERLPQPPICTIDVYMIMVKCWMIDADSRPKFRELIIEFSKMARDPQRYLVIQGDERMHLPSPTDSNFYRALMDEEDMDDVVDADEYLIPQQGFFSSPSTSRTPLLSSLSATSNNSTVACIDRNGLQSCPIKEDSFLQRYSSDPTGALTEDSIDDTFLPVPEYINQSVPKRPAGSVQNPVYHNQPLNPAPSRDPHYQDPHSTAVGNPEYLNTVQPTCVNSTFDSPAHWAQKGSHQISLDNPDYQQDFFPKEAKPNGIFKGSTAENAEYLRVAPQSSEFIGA

SMILES	inhibition [%]
COc1cc2ncnc(Nc3cccc(C)c3)c2cc1OC	100
O=c1[nH]nc(SCCS(=O)(=O)c2cccc(C(F)(F)F)c2)n1-c1ccc(OCc2ccccc2)cc1	53
CN1CCN(c2ccccc2/C=C2/C(=O)Nc3ccccc32)CC1	55
CCOC(=O)c1ccc(N2CCOCC2)c(NS(=O)(=O)c2cc(Br)c(Cl)s2)c1	80
FC(F)(F)c1ccc(-n2cnnc2SCc2nc(COc3c(Cl)cccc3Cl)no2)cc1	77
CC1=NNC2OC(N)=C(C#N)C(c3ccc4c(c3)OCO4)C12 (stereo unspecified)	44
O=c1[nH]nc2n1-c1ccccc1SC2	48

Target: T1, Epidermal growth factor receptor
Settings: not given

SMILES	IC50 [nM]
C=CC(=O)Nc1cc2ncnc(Nc3ccc(F)c(Br)c3)c2[nH]1	1.2
COc1cc2ncnc(Nc3ccc(F)c(Cl)c3)c2cc1CN(C)[C@@H](C)C(N)=O	8
O=S(=O)(CO)Nc1cc2c(Nc3cccc(Br)c3)ncnc2cn1	93.3
COc1cc(NC(=O)/C=C/CN2CCOCC2)cc2c(Nc3cccc(Br)c3)ccnc12	5390
CCN(CC)CCCNC(=O)/C=C/C(=O)Cc1cc2c(Nc3cccc(Br)c3)ncnc2cn1	0.724
CCOC(=O)/C=C/C(=O)Cc1cc2c(Nc3cccc(Br)c3)ncnc2cn1	1.51
O=C(/C=C\Cl)Cc1cc2c(Nc3cccc(Br)c3)ncnc2cn1	0.692
CN1Cc2cc3c(Nc4cccc(Br)c4)ncnc3cc21	0.794
C=CC(=O)Nc1ccc2ncnc(Cc3ccc(F)c(Cl)c3)c2n1	0.759
COc1cc2nccc(Nc3ccc(F)c(Cl)c3)c2cc1NC(=O)/C=C/CN1CCOCC1	13600
O=C(O)/C=C/C(=O)Cc1ccc2ncnc(Nc3cccc(Br)c3)c2c1	0.372
C=CC(=O)Cc1cc2c(Nc3cccc(Br)c3)ncnc2cn1	0.912
COc1cc2ncnc(Nc3cccc(C)c3)c2cc1OC	4.6
C=CC(=O)Nc1nc2c(Cc3ccc(F)c(Cl)c3)ncnc2cc1CCCCN1CCOCC1	2.69
O=C(Nc1cccc([N+](=O)[O-])c1)Nc1ncnc2nn3ccccc3c12	10000
C=CC(=O)C(C)c1cc2c(Nc3cccc(Br)c3)ncnc2cn1 (stereo unspecified)	0.17
O=C(Nc1cccc(C(F)(F)F)c1)Nc1ncnc2nn3ccccc3c12	10000
COc1cc2ncnc(Nc3ccc(F)c(Cl)c3)c2cc1CN(C)[C@H](C)C(N)=O	9
COc1cc2ncnc(Nc3ccc(F)c(Cl)c3)c2cc1CN1CC[C@@H](C(N)=O)C1	6
CCOc1cc2nccc(Nc3cccc(Br)c3)c2cc1NC(=O)/C=C/CN1CCOCC1	10300
COc1cc2ncnc(Nc3ccc(F)c(Cl)c3)c2cc1CN(C(C)C)[C@@H](C)C(N)=O	< 1
C=CC(=O)C(CCCN1CCOCC1)c1ccc2ncnc(Nc3cccc(Br)c3)c2c1 (stereo unspecified)	3.31
CC(=O)/C=C/C(=O)Cc1ccc2ncnc(Nc3cccc(Br)c3)c2c1	1.2

SMILES	IC50 [nM]
CS(=O)(=O)CCN(CCCCOc1ccc2ncnc(Nc3ccc(OCc4ccccc4)cc3)c2c1)C(=O)C(F)(F)F	234
O=C(Nc1ccc(C(F)(F)F)cc1)Nc1ncnc2nn3ccccc3c12	10000
C=CC(=O)Nc1cc2c(Cc3ccc(F)c(Br)c3)ncnc2cc1OCCCN1CCOCC1	1.82
C=CC(=O)C(CCCN1CCOCC1)c1cc2c(Nc3cccc(Br)c3)ncnc2cn1 (stereo unspecified)	2.69
CN(C)CCCNC(=O)/C=C/C(=O)Cc1cc2c(Nc3cccc(Br)c3)ncnc2cn1	1.1
C/C=C/C(=O)Nc1ccc2c(Nc3cccc(Br)c3)ncnc2c1	0.676
C=CC(=O)Nc1nc2c(Cc3ccc(F)c(Cl)c3)ncnc2cc1OCCCN1CCC(C)CC1	6.61
CCOC(=O)/C=C/C(=O)Cc1ccc2ncnc(Nc3cccc(Br)c3)c2c1	2.69
C=CC(=O)Nc1cc2c(Cc3ccc(F)c(Cl)c3)ncnc2cc1OCCOCCCCO	1.7
C/C=C/C(=O)Cc1cc2c(Nc3cccc(Br)c3)ncnc2cn1	0.501
C=CC(=O)Nc1cc2c(Cc3cccc(C)c3)ncnc2cc1OCCCN1CCC(C)CC1	2
C=CC(=O)NC1=NC=C2N=CN=C(Nc3ccc(F)c(Br)c3)C21 (stereo unspecified)	0.724
O=C(O)CCNc1cc2ncnc(Nc3cccc(Br)c3)c2cn1	0.603
C=CC(=O)NC1=NC=C2N=CN=C(Nc3ccc(F)c(Cl)c3)C21 (stereo unspecified)	0.776
C/C=C/C(=O)Nc1cc2c(Nc3ccc(F)c(Cl)c3)ccnc2cc1CC	7500
OCC(O)CN1Cc2cc3c(Nc4cccc(Br)c4)ncnc3cc21 (stereo unspecified)	1.58
CN(N)C/C=C/C(=O)Nc1cc2c(Nc3cccc(Br)c3)ccnc2cn1	8.6
CCOC(=O)c1ccc(N2CCOCC2)c(NS(=O)(=O)c2cc(Br)c(Cl)s2)c1	11100
Nc1ncnc2nn3ccccc3c12	10000
C=CC(=O)Nc1ccc2c(Nc3cccc(Br)c3)ncnc2c1	0.251
C=CC(=O)Nc1ccc2ncnc(Cc3ccc(CN(C)C)c(Br)c3)c2c1	44.7
CN(C)CCN1Cc2cc3c(Nc4cccc(Br)c4)ncnc3cc21	40.7
O=C(Nc1ccc(Br)cc1)Nc1ncnc2nn3ccccc3c12	10000

SMILES	IC50 [nM]
C=CC(=O)Nc1cc2c(Cc3cccc(Br)c3)ncnc2cc1OCCCCN(C)C	3.89
O=C(Nc1ccc(F)cc1)Nc1ncnc2nn3ccccc3c12	10000
N#Cc1cccc(NC(=O)Nc2ncnc3nn4ccccc4c23)c1	10000
C=CC(=O)Nc1cc2c(Cc3cccc(Br)c3)ncnc2cc1OCCCN1CCC(C)CC1	1.7
C=CC(=O)NC1=CC=C2N=CN=C(Nc3ccc(Oc4ccccc4)cc3)C21 (stereo unspecified)	5.75
C=CC(=O)Nc1cc2c(Cc3cccc(Br)c3)ncnc2cc1OCCCn1ccnc1	3.02
C=CC(=O)Nc1cc2ncnc(Nc3cccc(Br)c3)c2[nH]1	1.1
C=CC(=O)Nc1nc2c(Cc3ccc(F)c(Cl)c3)ncnc2cc1/C=C/CCN1CCOCC1	0.158
C=CC(=O)Nc1nc2c(Cc3ccc(F)c(Cl)c3)ncnc2cc1OCCOC	0.977
COc1cc2ncnc(Nc3ccc(F)c(Cl)c3)c2cc1CNC(=O)[C@H]1CCCCN1C	8
COC[C@H]1Oc2cc3ncnc(Nc4cccc(Cl)c4)c3cc2O[C@@H]1COC	10.1
C=CC(=O)Nc1cc2c(Cc3cccc(C)c3)ncnc2cc1OCCCN1CCOCC1	1.51
COc1cc2nccc(Nc3ccc(F)c(Cl)c3)c2cc1NC(=O)/C=C/C(C)N(C)C (stereo unspecified)	5220
C=CC(=O)Nc1ccc2ncnc(Cc3ccc(OCCN(C)C)c(Br)c3)c2c1	26.9
COc1cc2nccc(Nc3ccc(F)c(Cl)c3)c2cc1NC(=O)/C=C/C(C)N1CCOCC1 (stereo unspecified)	10600
C=CC(=O)Nc1ccc2ncnc(Cc3cccc(Br)c3)c2c1	0.708
O=C(Cc1c[nH]c2cc3ncnc(Nc4cccc(Br)c4)c3cc12)N1CCOCC1	4.79
C=C(C)C(=O)Cc1ccc2ncnc(Nc3cccc(Br)c3)c2c1	1.2
C=C=CC(=O)Cc1ccc2ncnc(Nc3cccc(Br)c3)c2c1	1.58
C/C=C/C(=O)Cc1ccc2ncnc(Nc3cccc(Br)c3)c2c1	0.55
FC(F)(F)c1ccc(-n2cnnc2SCc2nc(COc3c(Cl)cccc3Cl)no2)cc1	6300
C=CC(=O)Nc1cc2c(Cc3cccc(Br)c3)ncnc2cc1SCCCN(CC)CC	0.776
C=CC(=O)NC1=CC=C2N=CN=C(Nc3cccc(C(F)(F)F)c3)C21 (stereo unspecified)	0.912

SMILES	IC50 [nM]
O=C(/C=C/CC(=O)Nc1ccc2ncnc(Nc3cccc(Br)c3)c2c1)Nc1ccc2c(Nc3cccc(Br)c3)ncnc2c1	0.447
C=CC(=O)N(C)c1nc2c(Cc3ccc(F)c(Cl)c3)ncnc2cc1OCCCN1CCOCC1	20
CN(C)c1cc2ncnc(Nc3cccc(Br)c3)c2cn1	0.0891
O=C(CCCN1Cc2cc3c(Nc4cccc(Br)c4)ncnc3cc21)N1CCOCC1	8.71
C=CC(=O)Nc1ccc2ncnc(Cc3cccc(C)c3)c2c1	0.417
C=CC(=O)NC1=CC=C2N=CN=C(Nc3cccc(C)c3)C21 (stereo unspecified)	0.417
C=CC(=O)Nc1cc2c(Cc3ccc(F)c(Cl)c3)ncnc2cc1OCCCN1CCOCC1	1.51
C=CC(=O)NC1=NC=C2N=CN=C(Nc3cccc(C)c3)C21 (stereo unspecified)	0.479
O=C(O)CN1Cc2cc3c(Nc4cccc(Br)c4)ncnc3cc21	5.13
C=CC(=O)Nc1ccc2ncnc(Cc3ccc(F)c(Br)c3)c2c1	0.692
C=CC(=O)Nc1nc2c(Cc3ccc(F)c(Cl)c3)ncnc2cc1OC	0.955
O=C(/C=C/C(=O)NCCCn1ccnc1)Cc1cc2c(Nc3cccc(Br)c3)ncnc2cn1	0.562
C=CC(=O)Nc1cc2ncnc(Nc3cccc(Cl)c3)c2cn1	0.537
C=CC(=O)Nc1ccc2ncnc(Cc3ccc(F)c(Cl)c3)c2c1	0.759
C=CC(=O)NC1=CC=C2N=CN=C(Nc3cccc(Cl)c3)C21 (stereo unspecified)	1.58
CC(C(=O)/C=C/C(=O)NCCCN(C)C)c1cc2c(Nc3cccc(Br)c3)ncnc2cn1 (stereo unspecified)	1.45
C=C(C)C(=O)Cc1cc2c(Nc3cccc(Br)c3)ncnc2cn1	1.58
O=C(CCn1ncc2cc3c(Nc4cccc(Br)c4)ncnc3cc21)N1CCOCC1	3.72
C=CC(=O)NC1=CC=C2N=CN=C(Nc3ccc(OCc4ccccc4)cc3)C21 (stereo unspecified)	3.63
Brc1cccc(Nc2ncnc3cc4c(cc23)CN4)c1	0.437
